# Test results as given in patent publication US9423396B2, “Bodipy structure fluorescence probes for diverse biological applications” (National University of Singapore, priority 2011, dated 2016).
# Experiment: Spectroscopic measurements (absorption, emission, quantum yield, extinction coefficient)
# Assay type: physicochemical
# Settings: BDNCA library; for Abs: absorption; for Flu-Abs: difference emission minus absorption; for ε: extinction coefficient, in M-1 cm-1 (unit assumed); for Flu: fluorescence emission
SMILES,Qunt. Yield,Abs,Flu-Abs,ε,Flu
Cc1ccc(/C=C/c2cc(C)c3n2[B-](F)(F)[N+]2=CC=CC2=C3c2ccc(NC(=O)CCl)cc2)cc1 [BDNCA-208],0.12,558 nm,23,"64,805",581
COc1cc(/C=C/C2=[N+]3C(=C(c4ccc(NC(=O)CCl)cc4)c4cccn4[B-]3(F)F)C(C)=C2)cc(OC)c1 [BDNCA-209],0.12,556 nm,20,"62,334",576
COC(=O)c1ccc(/C=C/C2=[N+]3C(=C(c4ccc(NC(=O)CCl)cc4)c4cccn4[B-]3(F)F)C(C)=C2)cc1 [BDNCA-219],0.16,560 nm,21,"73,043",581
COc1cc(Cl)c(/C=C/C2=[N+]3C(=C(c4ccc(NC(=O)CCl)cc4)c4cccn4[B-]3(F)F)C(C)=C2)c(Cl)c1O [BDNCA-220],0.01,559 nm,24,"40,915",583
COc1cc(/C=C/C2=[N+]3C(=C(c4ccc(NC(=O)CCl)cc4)c4cccn4[B-]3(F)F)C(C)=C2)c(OCc2ccccc2)cc1OC [BDNCA-223],weak,583 nm,–,"59,863",weak
COc1cc(Br)cc(/C=C/C2=[N+]3C(=C(c4ccc(NC(=O)CCl)cc4)c4cccn4[B-]3(F)F)C(C)=C2)c1OC [BDNCA-228],0.13,558 nm,19,"63,707",577
CC1=CC(/C=C/c2cccc3c2OCO3)=[N+]2C1=C(c1ccc(NC(=O)CCl)cc1)c1cccn1[B-]2(F)F [BDNCA-231],0.04,559 nm,19,"33,227",578
Cc1ccc(/C=C/c2cc(C)c3n2[B-](F)(F)[N+]2=CC=CC2=C3c2ccc(NC(=O)CCl)cc2)s1 [BDNCA-236],0.11,577 nm,31,"72,220",608
CC1=CC(/C=C/c2ccc(I)cc2)=[N+]2C1=C(c1ccc(NC(=O)CCl)cc1)c1cccn1[B-]2(F)F [BDNCA-237],0.13,560 nm,19,"70,572",579
Cc1cc(/C=C/c2ccc(CO)o2)n2c1C(c1ccc(NC(=O)CCl)cc1)=C1C=CC=[N+]1[B-]2(F)F [BDNCA-238],0.05,575 nm,33,"40,366",608
Cc1cc(/C=C/c2ccccc2OC(F)F)n2c1C(c1ccc(NC(=O)CCl)cc1)=C1C=CC=[N+]1[B-]2(F)F [BDNCA-240],0.08,554 nm,19,"47,506",573
COc1c(Br)cc(Br)cc1/C=C/C1=[N+]2C(=C(c3ccc(NC(=O)CCl)cc3)c3cccn3[B-]2(F)F)C(C)=C1 [BDNCA-241],0.09,558 nm,20,"48,879",578
COc1cc(/C=C/C2=[N+]3C(=C(c4ccc(NC(=O)CCl)cc4)c4cccn4[B-]3(F)F)C(C)=C2)cc(I)c1OC [BDNCA-242],0.14,561 nm,25,"70,847",586
CC1=CC(/C=C/c2c(Cl)ccc(C)c2F)=[N+]2C1=C(c1ccc(NC(=O)CCl)cc1)c1cccn1[B-]2(F)F [BDNCA-246],0.09,554 nm,19,"43,387",573
CC1=CC(/C=C/c2ccc(C)c(F)c2)=[N+]2C1=C(c1ccc(NC(=O)CCl)cc1)c1cccn1[B-]2(F)F [BDNCA-249],0.12,556 nm,21,"71,945",577
COc1ccc([N+](=O)[O-])cc1/C=C/C1=[N+]2C(=C(c3ccc(NC(=O)CCl)cc3)c3cccn3[B-]2(F)F)C(C)=C1 [BDNCA-250],0.12,559 nm,22,"53,547",581
CCc1ccccc1/C=C/c1cc(C)c2n1[B-](F)(F)[N+]1=CC=CC1=C2c1ccc(NC(=O)CCl)cc1 [BDNCA-251],0.11,555 nm,23,"54,096",578
CCc1ccc(/C=C/C2=[N+]3C(=C(c4ccc(NC(=O)CCl)cc4)c4cccn4[B-]3(F)F)C(C)=C2)cc1[N+](=O)[O-] [BDNCA-252],0.08,556 nm,20,"57,666",576
COc1cccc(F)c1/C=C/C1=[N+]2C(=C(c3ccc(NC(=O)CCl)cc3)c3cccn3[B-]2(F)F)C(C)=C1 [BDNCA-254],0.09,559 nm,22,"56,018",581

SMILES,Qunt. Yield,Abs,Flu-Abs,ε,Flu
Cc1ccc(/C=C/c2cc(C)c3n2[B-](F)(F)[N+]2=CC=CC2=C3c2ccc(NC(=O)CCl)cc2)cc1[N+](=O)[O-] [BDNCA-255],0.10,556 nm,19,"62,059",575
Cc1cc(/C=C/c2cccc(Br)c2O)n2c1C(c1ccc(NC(=O)CCl)cc1)=C1C=CC=[N+]1[B-]2(F)F [BDNCA-256],0.04,561 nm,21,"52,449",582
COc1cc(/C=C/C2=[N+]3C(=C(c4ccc(NC(=O)CCl)cc4)c4cccn4[B-]3(F)F)C(C)=C2)cc(Br)c1OC [BDNCA-259],0.11,561 nm,21,"49,428",582
COc1ccc(/C=C/C2=[N+]3C(=C(c4ccc(NC(=O)CCl)cc4)c4cccn4[B-]3(F)F)C(C)=C2)cc1Br [BDNCA-260],0.19,564 nm,27,"86,499",591
COc1ccc(/C=C/c2cc(C)c3n2[B-](F)(F)[N+]2=CC=CC2=C3c2ccc(NC(=O)CCl)cc2)c(Br)c1O [BDNCA-261],0.01,567 nm,29,"49,703",596
CC1=CC(/C=C/c2c(Br)ccc3c2OCO3)=[N+]2C1=C(c1ccc(NC(=O)CCl)cc1)c1cccn1[B-]2(F)F [BDNCA-262],0.07,561 nm,21,"68,924",582
CCCCc1ccc(/C=C/C2=[N+]3C(=C(c4ccc(NC(=O)CCl)cc4)c4cccn4[B-]3(F)F)C(C)=C2)cc1 [BDNCA-263],0.17,559 nm,23,"124,394",582
COc1cc(/C=C/C2=[N+]3C(=C(c4ccc(NC(=O)CCl)cc4)c4cccn4[B-]3(F)F)C(C)=C2)ccc1OCCBr [BDNCA-268],0.12,569 nm,40,"54,371",609
COc1ccc(/C=C/C2=[N+]3C(=C(c4ccc(NC(=O)CCl)cc4)c4cccn4[B-]3(F)F)C(C)=C2)cc1Cl [BDNCA-274],0.15,563 nm,27,"71,670",590
COc1cc(Cl)cc(/C=C/C2=[N+]3C(=C(c4ccc(NC(=O)CCl)cc4)c4cccn4[B-]3(F)F)C(C)=C2)c1O [BDNCA-275],0.01,563 nm,22,"60,686",585
Cc1cc(/C=C/c2ccc(Oc3ccc(Cl)cc3)cc2)n2c1C(c1ccc(NC(=O)CCl)cc1)=C1C=CC=[N+]1[B-]2(F)F [BDNCA-277],0.15,561 nm,24,"65,080",585
COc1cccc(/C=C/C2=[N+]3C(=C(c4ccc(NC(=O)CCl)cc4)c4cccn4[B-]3(F)F)C(C)=C2)c1Cl [BDNCA-281],0.14,556 nm,20,"79,908",576
COc1cc(Cl)cc(/C=C/C2=[N+]3C(=C(c4ccc(NC(=O)CCl)cc4)c4cccn4[B-]3(F)F)C(C)=C2)c1OC [BDNCA-282],0.12,557 nm,20,"52,723",577
CC1=CC(/C=C/c2cccc(O)c2Cl)=[N+]2C1=C(c1ccc(NC(=O)CCl)cc1)c1cccn1[B-]2(F)F [BDNCA-283],0.05,556 nm,18,"27,460",574
CC1=CC(/C=C/c2ccc(-c3cccc(Cl)c3)o2)=[N+]2C1=C(c1ccc(NC(=O)CCl)cc1)c1cccn1[B-]2(F)F [BDNCA-284],0.04,595 nm,42,"31,579",637
CC1=CC(/C=C/c2c(C)cccc2Cl)=[N+]2C1=C(c1ccc(NC(=O)CCl)cc1)c1cccn1[B-]2(F)F [BDNCA-285],0.12,544 nm,27,"44,211",571
CC1=CC(/C=C/c2ccc(C)c(Cl)c2)=[N+]2C1=C(c1ccc(NC(=O)CCl)cc1)c1cccn1[B-]2(F)F [BDNCA-289],0.16,560 nm,26,"60,686",586
CC1=CC(/C=C/c2ccc(Oc3cccc(Cl)c3)cc2)=[N+]2C1=C(c1ccc(NC(=O)CCl)cc1)c1cccn1[B-]2(F)F [BDNCA-290],0.14,557 nm,20,"65,629",577
